Measured values: patent publication US10376510B2, “2,4- or 4,6-diaminopyrimidine compounds as IDH2 mutants inhibitors for the treatment of cancer” (AGIOS PHARMACEUTICALS, INC., priority 2013, dated 2019)

What was measured:
IDH2 R140Q = molecular target: T1, IDH2 R140Q (Homo sapiens, UniProt P48735, R140Q); test: IDH2 R140Q enzymatic assay (NADPH cofactor depletion, diaphorase/resazurin readout); format: biochemical; set-up: key to Enz R140Q: values indicated as “A” represent an IC50 of less than 50 nM; values indicated as “B” represent an IC50 of between 50 nM and 100 nM; values indicated as “C” represent an IC50 of greater than 100 nM; values indicated as “D” represent that the compound was either inactive or not tested in that particular assay; conditions: IDH2 R140Q enzyme, 16 hours preincubation, class symbols; for IC50: read-out: Enz R140Q
T1 sequence (P48735 40-452 R140Q): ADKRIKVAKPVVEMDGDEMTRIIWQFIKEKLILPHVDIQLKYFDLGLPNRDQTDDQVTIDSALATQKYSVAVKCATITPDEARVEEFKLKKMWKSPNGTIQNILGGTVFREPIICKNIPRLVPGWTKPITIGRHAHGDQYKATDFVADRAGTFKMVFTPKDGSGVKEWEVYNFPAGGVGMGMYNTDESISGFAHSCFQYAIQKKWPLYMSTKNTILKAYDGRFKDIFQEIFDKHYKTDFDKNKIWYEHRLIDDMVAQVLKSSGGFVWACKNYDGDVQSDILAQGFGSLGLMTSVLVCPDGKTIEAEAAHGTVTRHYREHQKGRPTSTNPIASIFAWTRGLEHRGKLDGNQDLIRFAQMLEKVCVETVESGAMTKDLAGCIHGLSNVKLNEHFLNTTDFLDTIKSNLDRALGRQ
Method: Compounds are assayed for IDH2 R172K inhibitory activity through a cofactor depletion assay. […] The reaction is terminated by the addition of a second enzyme, diaphorase, and a corresponding substrate, resazurin. Diaphorase reduces resazurin to the highly fluorescent resorufin with the concomitant oxidation of NADPH to NADP, both halting the IDH2 reaction by depleting the available cofactor pool and facilitating quantitation of the amount of cofactor remaining after a specific time period through quantitative production of an easily detected fluorophore.
Specifically, into each of 12 wells of a 384-well plate, 1 μl of 100× compound dilution series is placed, followed by the addition of 40 μl of buffer (50 mM potassium phosphate (K2HPO4), pH 7.5; 150 mM NaCl; 10 mM MgCl2, 10% glycerol, 0.05% bovine serum albumin, 2 mM beta-mercaptoethanol) containing 1.25 μg/ml IDH2 R172K. The test compound is then incubated for 16 hours at room temperature with the enzyme; before starting the IDH2 reaction with the addition of 10 μl of substrate mix containing 50 μM NADPH and 6.3 mM α-KG in the buffer described above. After a further one hour of incubation at room temperature, the reaction is halted and the remaining NADPH measured through conversion of resazurin to resorufin by the addition of 25 μl Stop Mix (36 μg/ml diaphorase enzyme and 60 μM resazurin; in buffer). After one minute of incubation the plate is read on a plate reader at Ex544/Em590.
For determination of the inhibitory potency of compounds against IDH2 R140Q in an assay format similar to the above, a similar procedure is performed, except that the final testing concentration is 0.25 μg/ml IDH2 R140Q protein, 4 μM NADPH and 1.6 mM α-KG.
For determination of the inhibitory potency of compounds against IDH2 R140Q in a high throughput screening format, a similar procedure is performed, except that 0.25 μg/ml IDH2 R140Q protein was utilized in the preincubation step, and the reaction is started with the addition of 4 μM NADPH and 8 μM α-KG.

[1] = system: U87MG pLVX-IDH2 R140Q-neo cells; test: U87MG pLVX-IDH2 R140Q-neo cell based assay (2-HG in media by LC-MS); set-up: key to Cell R140Q: values indicated as “A” represent an IC50 of less than 50 nM; values indicated as “B” represent an IC50 of between 50 nM and 100 nM; values indicated as “C” represent an IC50 of greater than 100 nM; values indicated as “D” represent that the compound was either inactive or not tested in that particular assay; conditions: 2-HG at 48 hours, class symbols; for IC50: Homo sapiens, U-87 MG
Method: U87MG pLVX-IDH2 R140Q-neo Cell Based Assay.
U87MG pLVX-IDH2 R140Q-neo cells are grown in T125 flasks in DMEM containing 10% FBS, 1× penicillin/streptomycin and 500 μg/mL G418. They are harvested by trypsin and seeded into 96 well white bottom plates at a density of 5000 cell/well in 100 μl/well in DMEM with 10% FBS. No cells are plated in columns 1 and 12. Cells are incubated overnight at 37° C. in 5% CO2. The next day compounds are made up at 2x concentration and 100 ul are added to each cell well. The final concentration of DMSO is 0.2% and the DMSO control wells are plated in row G. The plates are then placed in the incubator for 48 hours. At 48 hours, 100 ul of media is removed from each well and analyzed by LC-MS for 2-HG concentrations. The cell plate is placed back in the incubator for another 24 hours. At 72 hours post compound addition, 10 mL/plate of Promega Cell Titer Glo reagent is thawed and mixed. The cell plate is removed from the incubator and allowed to equilibrate to room temperature. Then 100 ul of reagent is added to each well of media. The cell plate is then placed on an orbital shaker for 10 minutes and then allowed to sit at room temperature for 20 minutes. The plate is then read for luminescence with an integration time of 500 ms to determine compound effects on growth inhibition.

IC50 (IDH2 R140Q) [nM]	IC50 [1] [nM]	Enz R140Q (IDH2 R140Q)	SMILES	Cell R140Q [1]
50 to 100	> 100		CC(C)Nc1cc(Nc2ccccc2)nc(-c2ccccc2)n1 [Compound 700]	
	> 100	D	CC(C)CC(=O)Nc1cc(Nc2ccccc2)nc(-c2ccccc2)n1 [Compound 701]	
< 50	> 100		CC(C)C(=O)Nc1cc(Nc2ccccc2)nc(-c2ccccc2)n1 [Compound 702]	
	> 100	D	CC(C)OC(=O)Nc1cc(Nc2ccccc2)nc(-c2ccccc2)n1 [Compound 703]	
< 50	< 50		CC(C)Nc1cc(Nc2ccccn2)nc(-c2cccc(C(F)(F)F)n2)n1 [Compound 704]	
< 50	< 50		CC(C)Nc1cc(Nc2cc(Cl)ccn2)nc(-c2cccc(C(F)(F)F)n2)n1 [Compound 705]	
< 50	< 50		CC(C)Nc1cc(Nc2ccnc(C(F)(F)F)c2)nc(-c2cccc(C(F)(F)F)n2)n1 [Compound 706]	
> 100	> 100		CC(C)(O)CNc1cc(Nc2ccccn2)nc(-c2cccc(C(F)(F)F)n2)n1 [Compound 707]	
< 50	50 to 100		CC(C)Nc1cc(Nc2ccccc2)nc(-c2cccc(C(F)(F)F)n2)n1 [Compound 708]	
> 100	> 100		CC(C)(O)CNc1cc(Nc2ccnc(C(F)(F)F)c2)nc(-c2cccc(C(F)(F)F)n2)n1 [Compound 709]	
< 50	< 50		CC(C)Nc1cc(Nc2cccc(Cl)n2)nc(-c2cccc(C(F)(F)F)n2)n1 [Compound 710]	
< 50	< 50		CC(C)Nc1cc(Nc2cc(C(F)(F)F)ccn2)nc(-c2cccc(C(F)(F)F)n2)n1 [Compound 711]	
< 50	< 50		CC(C)Nc1cc(Nc2cc(C#N)ccn2)nc(-c2cccc(C(F)(F)F)n2)n1 [Compound 712]	
< 50	< 50		CC(C)Nc1cc(Nc2cc(C(C)(F)F)ccn2)nc(-c2cccc(C(F)(F)F)n2)n1 [Compound 713]	
< 50	< 50		CC(C)Nc1cc(Nc2cc(C(F)F)ccn2)nc(-c2cccc(C(F)(F)F)n2)n1 [Compound 714]	
< 50	< 50		FC(F)(F)c1ccnc(Nc2cc(NCC3CC3)nc(-c3cccc(C(F)(F)F)n3)n2)c1 [Compound 715]	
50 to 100	< 50		CC(C)(C)Nc1cc(Nc2cc(C(F)(F)F)ccn2)nc(-c2cccc(C(F)(F)F)n2)n1 [Compound 716]	
< 50	< 50		CC(C)Nc1cc(Nc2cc(C(F)(F)F)ncn2)nc(-c2cccc(C(F)(F)F)n2)n1 [Compound 717]	
< 50	< 50		CC(C)(O)CNc1cc(Nc2cc(C(F)(F)F)ccn2)nc(-c2cccc(C(F)(F)F)n2)n1 [Compound 718]	

IC50 (IDH2 R140Q) [nM]	IC50 [1] [nM]	Enz R140Q (IDH2 R140Q)	SMILES	Cell R140Q [1]
< 50	< 50		N#CC1(c2ccnc(Nc3cc(NCC4CC4)nc(-c4cccc(C(F)(F)F)n4)n3)c2)CC1 [Compound 719]	
< 50	< 50		CC(C)Nc1cc(Nc2cc(C3(C#N)CC3)ccn2)nc(-c2cccc(C(F)(F)F)n2)n1 [Compound 720]	
50 to 100	< 50		CC(C)(C)Nc1cc(Nc2cc(C3(C#N)CC3)ccn2)nc(-c2cccc(C(F)(F)F)n2)n1 [Compound 721]	
> 100			Nc1cc(Nc2cc(C(F)(F)F)ccn2)nc(-c2cccc(C(F)(F)F)n2)n1 [Compound 722]	D
50 to 100			CC(C)(C)Nc1cc(Nc2cc(C(F)(F)F)ncn2)nc(-c2cccc(C(F)(F)F)n2)n1 [Compound 723]	D
< 50			COc1ccc(CNc2cc(Nc3cc(C(F)(F)F)ncn3)nc(-c3cccc(C(F)(F)F)n3)n2)cc1 [Compound 724]	D
50 to 100			CC(C)(CO)Nc1cc(Nc2cc(C(F)(F)F)ncn2)nc(-c2cccc(C(F)(F)F)n2)n1 [Compound 725]	D
> 100			Nc1cc(Nc2cc(C(F)(F)F)ncn2)nc(-c2cccc(C(F)(F)F)n2)n1 [Compound 726]	D
50 to 100			COc1ccc(CNc2cc(Nc3ccnc(C(F)(F)F)c3)nc(-c3cccc(C(F)(F)F)n3)n2)cc1 [Compound 727]	D
		D	Nc1cc(Nc2ccnc(C(F)(F)F)c2)nc(-c2cccc(C(F)(F)F)n2)n1 [Compound 728]	D
		D	CC(C)Nc1nc(Nc2ccccc2)cc(-c2ccccc2)n1 [Compound 729]	D
50 to 100	50 to 100		CC(C)Nc1cc(-c2ccccc2)nc(Nc2ccccc2)n1 [Compound 730]	
	> 100	D	O=C(Cc1ccccc1)Nc1nc(Nc2ccccc2)cc(-c2ccccc2)n1 [Compound 734]	
> 100	> 100		CC(C)CC(=O)Nc1cc(-c2ccccc2)nc(Nc2ccccc2)n1 [Compound 735]	
	> 100	D	CC(C)C(=O)Nc1cc(-c2ccccc2)nc(Nc2ccccc2)n1 [Compound 736]	
		D	CC(C)OC(=O)Nc1cc(-c2ccccc2)nc(Nc2ccccc2)n1 [Compound 737]	D
< 50	50 to 100		CC(C)Nc1nc(Nc2ccnc(C(F)(F)F)c2)cc(-c2cccc(C(F)(F)F)n2)n1 [Compound 738]	
< 50	> 100		CC(C)Nc1cc(-c2cccc(C(F)(F)F)n2)nc(Nc2ccnc(C(F)(F)F)c2)n1 [Compound 739]	
